How the values were obtained:
Details in all cases: incubation time: 72 h
MCF-10A [1] = experiment: normalised response (% of control), CellTox Green; higher = less cell death (100 = DMSO, 0 = benzethonium chloride kill control)
Method in brief: (§1)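 The table gives the normalised signal for a single concentration in each entry. Breast cancer cell lines were seeded (20 µl suspension) into 384-well plates holding compound at 5 concentrations in 10-fold steps over a compound-specific 10,000-fold range and incubated 72 h, then read for CellTox Green fluorescence (485/520 nm) and CellTiter-Glo luminescence. Normalisation on each plate used 0.1 % DMSO (100) and a positive kill control (0).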

CAL-51 [2] = experiment: as above
Method in brief: as §1

CAL-120 [3] = experiment: as above
Method in brief: as §1

HDQ-P1 [4] = experiment: as above
Method in brief: as §1

HCC1143 [5] = experiment: as above
Method in brief: as §1

BT-474 [6] = experiment: as above
Method in brief: as §1

MDA-MB-453 [7] = experiment: as above
Method in brief: as §1

BT-549 [8] = experiment: as above
Method in brief: as §1

CAL-85-1 [9] = experiment: as above
Method in brief: as §1

MDA-MB-231 [10] = experiment: as above
Method in brief: as §1

HCC1937 [11] = experiment: as above
Method in brief: as §1

MFM-223 [12] = experiment: as above
Method in brief: as §1

MDA-MB-468 [13] = experiment: as above
Method in brief: as §1

HCC1599 [14] = experiment: as above
Method in brief: as §1

DU-4475 [15] = experiment: as above
Method in brief: as §1

MDA-MB-436 [16] = experiment: as above
Method in brief: as §1

CAL-148 [17] = experiment: as above
Method in brief: as §1

MCF-10A [18] = experiment: normalised response (% of control), CellTiter-Glo; higher = more viable cells (100 = DMSO, 0 = benzethonium chloride kill control)
Method in brief: as §1

CAL-51 [19] = experiment: as above
Method in brief: as §1

CAL-120 [20] = experiment: as above
Method in brief: as §1

HDQ-P1 [21] = experiment: as above
Method in brief: as §1

HCC1143 [22] = experiment: as above
Method in brief: as §1

SK-BR-3 = experiment: as above
Method in brief: as §1

BT-474 [23] = experiment: as above
Method in brief: as §1

MDA-MB-453 [24] = experiment: as above
Method in brief: as §1

BT-549 [25] = experiment: as above
Method in brief: as §1

CAL-85-1 [26] = experiment: as above
Method in brief: as §1

MDA-MB-231 [27] = experiment: as above
Method in brief: as §1

HCC1937 [28] = experiment: as above
Method in brief: as §1

MFM-223 [29] = experiment: as above
Method in brief: as §1

Hs578T [30] = experiment: as above
Method in brief: as §1

MDA-MB-468 [31] = experiment: as above
Method in brief: as §1

HCC1599 [32] = experiment: as above
Method in brief: as §1

DU-4475 [33] = experiment: as above
Method in brief: as §1

MDA-MB-436 [34] = experiment: as above
Method in brief: as §1

CAL-148 [35] = experiment: as above
Method in brief: as §1

Hs578T [36] = experiment: normalised response (% of control), CellTox Green; higher = less cell death (100 = DMSO, 0 = benzethonium chloride kill control)
Method in brief: as §1

| SMILES | normalised response (MCF-10A [1]) | normalised response (CAL-51 [2]) | normalised response (CAL-120 [3]) | normalised response (HDQ-P1 [4]) | normalised response (HCC1143 [5]) | normalised response (BT-474 [6]) | normalised response (MDA-MB-453 [7]) | normalised response (BT-549 [8]) | normalised response (CAL-85-1 [9]) | normalised response (MDA-MB-231 [10]) | normalised response (HCC1937 [11]) | normalised response (MFM-223 [12]) | normalised response (MDA-MB-468 [13]) | normalised response (HCC1599 [14]) | normalised response (DU-4475 [15]) | normalised response (MDA-MB-436 [16]) | normalised response (CAL-148 [17]) | normalised response (MCF-10A [18]) | normalised response (CAL-51 [19]) | normalised response (CAL-120 [20]) | normalised response (HDQ-P1 [21]) | normalised response (HCC1143 [22]) | normalised response (SK-BR-3) | normalised response (BT-474 [23]) | normalised response (MDA-MB-453 [24]) | normalised response (BT-549 [25]) | normalised response (CAL-85-1 [26]) | normalised response (MDA-MB-231 [27]) | normalised response (HCC1937 [28]) | normalised response (MFM-223 [29]) | normalised response (Hs578T [30]) | normalised response (MDA-MB-468 [31]) | normalised response (HCC1599 [32]) | normalised response (DU-4475 [33]) | normalised response (MDA-MB-436 [34]) | normalised response (CAL-148 [35]) | normalised response (Hs578T [36]) |
| --- | --- | --- | --- | --- | --- | --- | --- | --- | --- | --- | --- | --- | --- | --- | --- | --- | --- | --- | --- | --- | --- | --- | --- | --- | --- | --- | --- | --- | --- | --- | --- | --- | --- | --- | --- | --- | --- |
| Cc1c(C(=O)Nc2ccc(N3C[C@@H](C)O[C@@H](C)C3)nc2)cccc1-c1ccc(OC(F)(F)F)cc1 [Erismodegib] (1000 nM) | 107% | 97.5% | 99.7% | 99.7% | 110% | 103% | 101% | 136% | 104% | 72.4% | 74.5% | 101% | 111% | 103% | 97.6% | 94.7% | 110% | 85.6% | 66.1% | 96.5% | 91.7% | 89.8% | 81.7% | 81.7% | 79.2% | 90.5% | 93% | 94.2% | 97.9% | 84.9% | 101% | 93.7% | 101% | 98.9% | 84.6% | 98.5% |  |
| CC(C)(C)Cn1c(N)nc2ccc(-c3[nH]c(C(C)(C)C)nc3-c3ccc(F)cc3)nc21 (1000 nM) | 77.7% | 94% | 81.1% |  |  | 101% | 101% | 111% | 90.7% | 110% |  | 99.5% | 113% | 84.3% | 105% | 78.8% | 99.9% | 89.7% | 103% | 96.6% | 94.6% | 98% | 97.7% | 101% | 92.8% | 93.7% | 104% | 100% | 93.6% | 97.9% | 97.7% | 93.4% | 111% | 94.8% | 102% | 93.1% | 80.6% |
| CCc1c(C(=O)C(N)=O)c2c(OCC(=O)O)cccc2n1Cc1ccccc1 [Varespladib] (1000 nM) | 97.7% | 110% | 106% | 114% | 108% | 99.9% | 109% | 102% | 114% | 103% | 105% | 97% | 105% | 99.3% | 102% | 103% | 100% | 104% | 106% | 98.2% | 100% | 106% | 100% | 92.6% | 99.8% | 94.2% | 97.6% | 103% | 100% | 95.8% | 102% | 100% | 96.4% | 101% | 94% | 104% |  |
| CN1CCc2c(c3ccccc3n2Cc2ccc(C(=O)NO)cc2)C1 [Tubastatin A] (10 nM) |  |  |  |  |  |  |  |  |  |  |  |  |  |  |  |  |  | 101% | 67.6% | 96.1% | 99.4% | 95.2% | 93.8% | 92.7% | 94.1% | 96.3% | 107% | 92.4% | 99.6% | 102% | 102% | 102% | 92.8% | 100% | 95.2% | 107% |  |
| COc1cc2c(cc1-c1c(C)noc1C)ncc1[nH]c(=O)n([C@H](C)c3ccccn3)c12 [I-BET151] (1 nM) |  |  |  |  |  |  |  |  |  |  |  |  |  |  |  |  |  | 109% | 81.1% | 101% | 106% | 105% | 97.8% | 96.7% | 102% | 99.7% | 103% | 99.5% | 96.6% | 97.8% | 101% | 95.9% | 103% | 103% | 98.5% | 104% |  |
| NC(=O)NO [Hydroxyurea] (100 nM) |  |  |  |  |  |  |  |  |  |  |  |  |  |  |  |  |  | 104% | 89.7% | 97.8% | 97.3% | 104% | 93.5% | 99.5% | 112% | 97.7% | 99.8% | 98.5% | 96% | 108% | 102% | 101% | 94.1% | 101% | 96.3% | 102% |  |
| CC(C)NC[C@@H](C(=O)N1CCN(c2ncnc3c2[C@H](C)C[C@H]3O)CC1)c1ccc(Cl)cc1 [GDC-0068] (1 nM) |  |  |  |  |  |  |  |  |  |  |  |  |  |  |  |  |  | 106% | 71% | 95.9% | 99.8% | 97.3% | 103% | 99.3% | 102% | 97.7% | 98.9% | 103% | 102% | 98.9% | 101% | 94.1% | 100% | 99.9% | 96.9% | 95.3% |  |
| CC(C)n1nc(-c2ccc3oc(N)nc3c2)c2c(N)ncnc21 [INK128] (0.1 nM) |  |  |  |  |  |  |  |  |  |  |  |  |  |  |  |  |  | 90.6% | 106% | 91% | 87.9% | 86.4% | 96% | 90.8% | 101% | 93.9% | 96.6% | 92.1% | 89.1% | 89.8% | 96.3% | 93.3% | 94.7% | 90.2% | 79.1% | 92.2% |  |
| COc1cc2c(Oc3ccc(NC(=O)C4(C(=O)Nc5ccc(F)cc5)CC4)cc3F)ccnc2cc1OCCCN1CCOCC1 [Foretinib] (1 nM) |  |  |  |  |  |  |  |  |  |  |  |  |  |  |  |  |  | 102% | 106% | 99.7% | 97.7% | 102% | 97.6% | 104% | 108% | 98.4% | 94.8% | 99% | 95% | 102% | 97.4% | 99.4% | 94.3% | 100% | 99.2% | 101% |  |
| CN1CCN(c2nc(C3=C(c4c[nH]c5ccccc45)C(=O)NC3=O)c3ccccc3n2)CC1 [Sotrastaurin] (10 nM) |  |  |  |  |  |  |  |  |  |  |  |  |  |  |  |  |  | 99.6% | 123% | 91.3% | 100% | 96.1% | 124% | 93.5% | 96.1% | 94.6% | 95.8% | 105% | 96.6% | 93.6% | 101% | 93.6% | 105% | 96.8% | 94.2% | 93.1% |  |
| Cn1cc(C[C@@H](N)C(=O)O)c2ccccc21 [1-methyl-D-tryptophan] (5 nM) |  |  |  |  |  |  |  |  |  |  |  |  |  |  |  |  |  | 95.2% | 94.2% | 95.1% | 104% | 102% | 99.8% | 100% | 90.1% | 95.7% | 91.3% | 96.8% | 98.5% | 94.2% | 93.2% | 98.3% | 107% | 95.8% | 107% | 88.9% |  |
| CCc1c(C(=O)C(N)=O)c2c(OCC(=O)O)cccc2n1Cc1ccccc1 [Varespladib] (1 nM) |  |  |  |  |  |  |  |  |  |  |  |  |  |  |  |  |  | 110% | 100% | 98.1% | 100% | 99% | 101% | 97.6% | 106% | 98.7% | 97.9% | 111% | 96.6% | 97.7% | 103% | 89.2% | 102% | 93.6% | 102% | 109% |  |
| N[C@@H](Cc1ccc(N(CCCl)CCCl)cc1)C(=O)O [Melphalan] (12.5 nM) |  |  |  |  |  |  |  |  |  |  |  |  |  |  |  |  |  | 101% | 75.2% | 101% | 103% | 95.3% | 95% | 103% | 104% | 100% | 99.4% | 102% | 102% | 99.5% | 104% | 95.4% | 133% | 99.3% | 103% | 96.2% |  |
